Assay results as given in patent US10716765B2, “Delivery of functional compounds” (Intercontinental Great Brands LLC, priority 2009, dated 2020).

Tests used:
[1] = In vitro digestion model simulating stomach and small intestine conditions; type: in vitro ADME
From the text: This example compares the release of the non-esterified functional ingredient to the esterified functional ingredient during a simulated gastrointestinal study using an in vitro digestion model.
In addition, the partition coefficients for the ester compounds are greater than the parent compounds. These factors indicate that the ester compounds have a greater affinity for the hydrophobic carrier and insoluble matrix material than the parent compounds. […] The reduced rate is most evident when comparing linalool and thymol release from FIG. 4 to linalyl acetate and thymyl acetate release from FIG. 5. This improvement in stability within the model stomach implies increased stability in other low pH systems, such as acidic beverages, and further illustrates the importance of the esters for successful microencapsulation and enteric release of the functional ingredients.
As evident in FIGS. 4 and 5, the gastric release rate was reduced, as well as the release rate from 0-24.5 h, representative of the residence time in the small intestine. FIGS. 6 and 7 show the release rates of two esters of linalool, linalyl acetate in FIG. 6 and linalyl butyrate in FIG. 7 within a digestion model simulating stomach and small intestine conditions and residence times. In addition, the levels of the parent compounds present in the digestion model over time were measured. […]

[2] = versus linalool and thymol, FIG. 3; cited from earlier work
[3] = Evaluation of emulsifiers in oil-in-water emulsion of essential oil blend; type: physicochemical; conditions: compared with other emulsifiers
From the text: Various emulsifiers were combined with deionized water at 60 C to produce 2% solutions. The resulting solutions were combined with an essential oil blend composition (4% alpha-pinene, 30% para-cymene, 7% linalool, and 35% thymol and 24% soybean oil) in a 50:50 weight ratio with deionized water to create an oil-in-water emulsion. The emulsifiers evaluated were Glycosperse S-20 KFG (Lonza; Fairlawn, N.J.), Polyaldo 10-1-O KFG (Lonza; Fairlawn, N.J.), Aldosperse MS-20 KFG (Lonza; Fairlawn, N.J.), Polyaldo 10-2-P KFG (Lonza; Fairlawn, N.J.), Ryoto sugar ester (S-1570, Mitsubishi-Kagaku Food Corp.; Tokyo, Japan), Precept 8120 (Central Soya; Fort Wayne, Ind.) and sodium caseinate (Alanate-180, New Zealand Dairy Board; Wellington, New Zealand).

Row | emulsion stability ([3]; after 24 hours storage at room temperature) | Molecule | hydrolysis of the ester to linalool [1] | partition coefficient compared with parent compounds [2] | solubility in water compared with parent compounds [2] | oil droplets within the emulsion ([3]; 2% emulsifier solution, 50:50 with essential oil blend)
1 |  | C=CC(C)(CCC=C(C)C)OC(C)=O (stereo not shown) [linalyl acetate] | about 33% | greater | significantly lower | 
2 |  | C=CC(C)(CCC=C(C)C)OC(=O)CCC (stereo not shown) [linalyl butyrate] | about 5% | greater | significantly lower | 
3 |  | CC(=O)Oc1cc(C)ccc1C(C)C [thymyl acetate] |  | greater | significantly lower | 
4 | greatest stability | sucrose stearate [Example S-1570] |  |  |  | smallest and most uniformly dispersed oil droplets
